Patent US8017612B2, “Piperazine compound and use thereof as a HCV polymerase inhibitor” (priority 2006, dated 2011)

Key:
[1] = molecular target: T1, HCV polymerase (NS5B) type 1a (Hepatitis C virus genotype 1a, UniProt P26664); assay: Assay of enzyme (HCV polymerase) inhibitory activity, type 1a enzyme; assay type: biochemical, HCV type 1a (cloned from the blood of patients); conditions: HCV polymerase inhibitory activity (IC50), 1a, type 1a enzyme 1.5 μg/ml, 25° C., 60 min
T1 construct: made in house; host or cells: Escherichia coli (by the 'similar method' of the 1b enzyme)
Procedure, shortened: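 Reactions ran 60 min at 25° C in 20 mM Tris-HCl pH 7.5, 5 mM MgCl2, 50 mM NaCl, holding genotype 1a NS5B (1.5 μg/ml, Δ47 C-terminus, 6His), substrate RNA 5 μg/ml, UTP 2 μM with tritiated UTP and other NTPs 50 μM. IC50 derived from incorporated radiolabel in filter-trapped RNA relative to uninhibited reaction.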

[2] = molecular target: T2, HCV polymerase (NS5B) type 1b (Hepatitis C virus genotype 1b, UniProt P26663); assay: Assay of enzyme (HCV polymerase) inhibitory activity, type 1b enzyme; assay type: biochemical, HCV BK strain (type 1b); conditions: HCV polymerase inhibitory activity (IC50), 1b, type 1b enzyme 0.5 μg/ml, 25° C., 60 min
T2 construct: a region encoding NS5B (J Virol 1991 March, 65(3), 1105-13, 544 amino acids after deletion of 47 amino acids on the C-terminal); 6xHis (C); made in house; host or cells: Escherichia coli
Procedure, shortened: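 IC50 derived from [3H]UTP incorporation into TCA-insoluble RNA, compared with and without test compound. Reaction (25 °C, 60 min, Tris pH 7.5, 5 mM MgCl2): E. coli-expressed 1b NS5B Δ47 with His tag at 0.5 μg/ml, 5 μg/ml run-off substrate RNA, ATP/GTP/CTP 50 μM, UTP 2 μM.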

| Compound | IC50 [1] | IC50 [2] |
| --- | --- | --- |
| CCC(F)(F)c1ccc(CNC(=O)[C@H]2CN(C(=O)C3CC3)CCN2S(=O)(=O)c2ccc(OC(F)(F)F)cc2)cc1 [Example 610, (R)-4-cyclopropanecarbonyl-1-(4-trifluoromethoxy-benzenesulfonyl)-piperazine-2-carboxylic acid 4-(1,1-difluoro-propyl)-benzylamide] | 100 to 1000 nM | 100 to 1000 nM |
| CCC(F)(F)c1ccc(CNC(=O)[C@H]2CN(C(=O)C(C)(C)C)CCN2S(=O)(=O)c2ccc(OC(F)(F)F)cc2)cc1 [Example 611, (R)-4-(2,2-dimethyl-propionyl)-1-(4-trifluoromethoxy-benzenesulfonyl)-piperazine-2-carboxylic acid 4-(1,1-difluoro-propyl)-benzylamide] | > 1000 nM | > 1000 nM |
| CCC(F)(F)c1ccc(CNC(=O)[C@H]2CN(C(=O)Nc3nc(C(C)(C)O)cs3)CCN2S(=O)(=O)c2ccc(OC(F)(F)F)cc2)cc1 [Example 612, (R)-4-(4-trifluoromethoxy-benzenesulfonyl)-piperazine-1,3-dicarboxylic acid 3-[4-(1,1-difluoro-propyl)-benzylamide] 1-{[4-(1-hydroxy-1-methyl-ethyl)-thiazol-2-yl]-amide}] | > 1000 nM | 100 to 1000 nM |
| CC(=O)N1CCN(S(=O)(=O)c2ccc(OC(F)(F)F)cc2)[C@@H](C(=O)NCc2ccc(O)cc2)C1 [Example 613, (R)-4-acetyl-1-(4-trifluoromethoxy-benzenesulfonyl)-piperazine-2-carboxylic acid 4-hydroxy-benzylamide] | > 1000 nM | > 1000 nM |
| CC(=O)N1CCN(S(=O)(=O)c2ccc(OC(F)(F)F)cc2)[C@@H](C(=O)NCc2ccc(-c3ccccc3)s2)C1 [Example 614, (R)-4-acetyl-1-(4-trifluoromethoxy-benzenesulfonyl)-piperazine-2-carboxylic acid (5-phenyl-thiophen-2-ylmethyl)-amide] | 100 to 1000 nM | 100 to 1000 nM |
| CCC(F)(F)c1ccc(CNC(=O)[C@H]2CN(c3cnc4cncnc4n3)CCN2S(=O)(=O)c2ccc(OC(F)(F)F)cc2)cc1 [Example 615, (R)-4-pteridin-7-yl-1-(4-trifluoromethoxy-benzenesulfonyl)-piperazine-2-carboxylic acid 4-(1,1-difluoro-propyl)-benzylamide] | < 100 nM | < 100 nM |
| CCC(F)(F)c1ccc(CNC(=O)[C@H]2CN(c3cnc4c(n3)NC(=O)OC4)CCN2S(=O)(=O)c2ccc(OC(F)(F)F)cc2)cc1 [Example 616, (R)-4-(2-oxo-1,4-dihydro-2H-pyrazino[2,3-d][1,3]oxazin-7-yl)-1-(4-trifluoromethoxy-benzenesulfonyl)-piperazine-2-carboxylic acid 4-(1,1-difluoro-propyl)-benzylamide] | < 100 nM | < 100 nM |
| CC(C)(C)c1ccc(CNC(=O)[C@H]2CN(c3cnc4cncnc4n3)CCN2S(=O)(=O)c2ccc(OC(F)(F)F)cc2)cc1 [Example 617, (R)-4-pteridin-7-yl-1-(4-trifluoromethoxy-benzenesulfonyl)-piperazine-2-carboxylic acid 4-tert-butyl-benzylamide] | < 100 nM | < 100 nM |
| CC(C)(C)c1ccc(CNC(=O)[C@H]2CN(c3nc4nn[nH]c(=O)c4s3)CCN2S(=O)(=O)c2ccc(OC(F)(F)F)cc2)cc1 [Example 618, (R)-4-(4-oxo-3,4-dihydro-thiazolo[4,5-d][1,2,3]triazin-6-yl)-1-(4-trifluoromethoxy-benzenesulfonyl)-piperazine-2-carboxylic acid 4-tert-butyl-benzylamide] | < 100 nM | < 100 nM |
| CCN(C)c1ccc(CNC(=O)[C@H]2CN(c3cnc4cncnc4n3)CCN2S(=O)(=O)c2ccc(OC(F)(F)F)cc2)cc1 [Example 619, (R)-4-pteridin-7-yl-1-(4-trifluoromethoxy-benzenesulfonyl)-piperazine-2-carboxylic acid 4-(ethyl-methyl-amino)-benzylamide] | < 100 nM | < 100 nM |
| CC(C)(C)c1ccc(CNC(=O)[C@H]2CN(c3ccc(C(=O)O)nc3)CCN2S(=O)(=O)c2ccc(OC(F)(F)F)cc2)cc1 [Example 620, 5-[(R)-3-(4-tert-butyl-benzylcarbamoyl)-4-(4-trifluoromethoxy-benzenesulfonyl)-piperazin-1-yl]-pyridine-2-carboxylic acid] | < 100 nM | < 100 nM |
| CC(=O)N1CCN(S(=O)(=O)c2ccc(OC(F)(F)F)cc2)[C@@H](C(=O)NCC2(O)CCCCC2)C1 [Example 621, (R)-4-acetyl-1-(4-trifluoromethoxy-benzenesulfonyl)-piperazine-2-carboxylic acid (1-hydroxy-cyclohexylmethyl)-amide] | > 1000 nM | > 1000 nM |
| CC(=O)N1CCN(S(=O)(=O)c2ccc(OC(F)(F)F)cc2)[C@@H](C(=O)NCc2ccc(-c3cccs3)s2)C1 [Example 622, (R)-4-acetyl-1-(4-trifluoromethoxy-benzenesulfonyl)-piperazine-2-carboxylic acid ([2,2′]bithiophenyl-5-ylmethyl)-amide] | < 100 nM | 100 to 1000 nM |
| CC(=O)N1CCN(S(=O)(=O)c2ccc(OC(F)(F)F)cc2)[C@@H](C(=O)NCc2ccc(-c3cccs3)cc2)C1 [Example 623, (R)-4-acetyl-1-(4-trifluoromethoxy-benzenesulfonyl)-piperazine-2-carboxylic acid 4-thiophen-2-yl-benzylamide] | < 100 nM | 100 to 1000 nM |
| CCCc1ccc(CNC(=O)[C@H]2CN(C(C)=O)CCN2S(=O)(=O)c2ccc(OC(F)(F)F)cc2)cc1O [Example 624, (R)-4-acetyl-1-(4-trifluoromethoxy-benzenesulfonyl)-piperazine-2-carboxylic acid 3-hydroxy-4-propyl-benzylamide] | > 1000 nM | 100 to 1000 nM |
| CCC(F)(F)c1ccc(CNC(=O)[C@H]2CN(c3nc(OC)ns3)CCN2S(=O)(=O)c2ccc(OC(F)(F)F)cc2)cc1 [Example 625, (R)-4-(3-methoxy-[1,2,4]thiadiazol-5-yl)-1-(4-trifluoromethoxy-benzenesulfonyl)-piperazine-2-carboxylic acid 4-(1,1-difluoro-propyl)-benzylamide] | < 100 nM | < 100 nM |
| CCC(F)(F)c1ccc(CNC(=O)[C@H]2CN(c3ccn4ncnc4n3)CCN2S(=O)(=O)c2ccc(OC(F)(F)F)cc2)cc1 [Example 626, (R)-4-[1,2,4]triazolo[1,5-a]pyrimidin-5-yl-1-(4-trifluoromethoxy-benzenesulfonyl)-piperazine-2-carboxylic acid 4-(1,1-difluoro-propyl)-benzylamide] | < 100 nM | < 100 nM |
| O=C(NCc1ccc(OC(F)(F)F)cc1)[C@H]1CN(c2cnc3cncnc3n2)CCN1S(=O)(=O)c1ccc(OC(F)(F)F)cc1 [Example 627, (R)-4-pteridin-7-yl-1-(4-trifluoromethoxy-benzenesulfonyl)-piperazine-2-carboxylic acid 4-trifluoromethoxy-benzylamide] | < 100 nM | < 100 nM |
| CCCc1ccc(CNC(=O)[C@H]2CN(c3cnc4[nH]c(=O)[nH]c4n3)CCN2S(=O)(=O)c2ccc(OC(F)(F)F)cc2)cc1 [Example 628, (R)-4-(2-oxo-2,3-dihydro-1H-imidazo[4,5-b]pyrazin-5-yl)-1-(4-trifluoromethoxy-benzenesulfonyl)-piperazine-2-carboxylic acid 4-propyl-benzylamide] | 100 to 1000 nM | < 100 nM |
| O=C(NCc1ccc(Cl)cc1)[C@H]1CN(c2cnc3cncnc3n2)CCN1S(=O)(=O)c1ccc(OC(F)(F)F)cc1 [Example 629, (R)-4-pteridin-7-yl-1-(4-trifluoromethoxy-benzenesulfonyl)-piperazine-2-carboxylic acid 4-chloro-benzylamide] | 100 to 1000 nM | < 100 nM |
| CN(C)c1ccc(CNC(=O)[C@H]2CN(c3cnc4cncnc4n3)CCN2S(=O)(=O)c2ccc(OC(F)(F)F)cc2)cn1 [Example 630, (R)-4-pteridin-7-yl-1-(4-trifluoromethoxy-benzenesulfonyl)-piperazine-2-carboxylic acid (6-dimethylamino-pyridin-3-ylmethyl)-amide] | < 100 nM | < 100 nM |
| CCCc1ccc(CNC(=O)[C@H]2CN(c3ccc(C(=O)O)nc3)CCN2S(=O)(=O)c2ccc(OC(F)(F)F)cc2)cc1 [Example 631, 5-[(R)-3-(4-propyl-benzylcarbamoyl)-4-(4-trifluoromethoxy-benzenesulfonyl)-piperazin-1-yl]-pyridine-2-carboxylic acid] | < 100 nM | < 100 nM |
| CCC(F)(F)c1ccc(CNC(=O)[C@H]2CN(c3cnc4ccccc4n3)CCN2S(=O)(=O)c2ccc(OC(F)(F)F)cc2)cc1 [Example 632, (R)-4-quinoxalin-2-yl-1-(4-trifluoromethoxy-benzenesulfonyl)-piperazine-2-carboxylic acid 4-(1,1-difluoro-propyl)-benzylamide] | < 100 nM | < 100 nM |
